From PMC8286840, “Identifying SARS-CoV-2 antiviral compounds by screening for small molecule inhibitors of Nsp3 papain-like protease” (Biochemical Journal, 2021)
Structures can show the parent of a compound that is named as a salt. Where two headings read alike, the source gives them in different places. *1 amine or outer side, *2 acyl side, *3 side chain or, on linkers, in order; H or OH if unused. Where a SMILES comes first, the peptide text is derived from it. Bridges are numbered along the chain shown (N, C = ends). Roman numbers before positions name the chains, in order. [ ]: non-standard residue; d: D form. Actinocin(9to1) = Cc1c2oc3c(C)ccc(C(=O)[*:1])c3nc-2c(C(=O)[*:2])c(N)c1=O; NMeV = CN[C@H](C(=O)O)C(C)C; Sar = CNCC(=O)O

Assays:
[1] = biological target: T1, SARS-CoV-2 PLpro (nsp3 1564–1878) (Severe acute respiratory syndrome coronavirus 2, UniProt P0DTD1); test: biochemical; design: FRET-quenched peptide (Pro3) cleavage by PLpro, 10 min pre-incubation, slope over 20 min, normalised to no-compound control; conditions: high concentration screen, read-out: % of control remaining
[2] = biological target: T1, SARS-CoV-2 PLpro (nsp3 1564–1878); test: biochemical; design: FRET-quenched peptide (Pro3) cleavage by PLpro, 10 min pre-incubation, slope over 20 min, normalised to no-compound control; conditions: low concentration screen, read-out: % of control remaining

Work on Cc1cc(C(C)Nc2ccccc2)c2nc(N3CCOCC3)cc(=O)n2c1 (stereo not shown) yielded a remaining activity at 3.75 µM ([1]; Well no.=2577) of 101% and a remaining activity at 1.25 µM ([2]; Well no.=2577) of 101%.

Molecule Cc1cn([C@H]2C=C[C@@H](CO)O2)c(=O)[nH]c1=O [2',3'-didehydro-3'-deoxythymidine] has a remaining activity at 3.75 µM ([1]; Well no.=445) of 105% and a remaining activity at 1.25 µM ([2]; Well no.=445) of 104%.

Molecule C/C=C/C/C=C/CCC(=O)[C@H]1O[C@H]1C(N)=O [Cerulenin] has a remaining activity at 3.75 µM ([1]; Well no.=3137) of 102% and a remaining activity at 1.25 µM ([2]; Well no.=3137) of 93%.

For CN(C)C(N)=NCCC[C@H](N)C(=O)O [N^G,N^G-Dimethylarginine hydrochloride], the remaining activity at 3.75 µM ([1]; Well no.=689) was 97% and the remaining activity at 1.25 µM ([2]; Well no.=689) was 97%.

In the case of CCOC(=O)[N-]c1c[n+](N2CCOCC2)no1 [Molsidomine], the remaining activity at 3.75 µM ([1]; Well no.=780) is reported as 104%, the remaining activity at 3.75 µM ([1]; Well no.=1803) is reported as 96.1% and the remaining activity at 1.25 µM ([2]; Well no.=780) is reported as 110%. The remaining activity at 1.25 µM ([2]; Well no.=1803) was 97.9%.

For O=c1[nH]c(=O)n([C@@H]2O[C@H](CO)[C@@H](O)[C@H]2O)cc1F [5-Fluorouridine], the remaining activity at 3.75 µM ([1]; Well no.=7900) was 91.5% and the remaining activity at 1.25 µM ([2]; Well no.=7900) was 95.4%.

For C#CCC(Cc1cnc2nc(N)nc(N)c2n1)c1ccc(C(=O)N[C@@H](CCC(=O)O)C(=O)O)cc1 (stereo partly shown) [Pralatrexate], the remaining activity at 3.75 µM ([1]; Well no.=7550) was 95.8%, the remaining activity at 3.75 µM ([1]; Well no.=9172) was 84.5% and the remaining activity at 1.25 µM ([2]; Well no.=7550) was 97%. The remaining activity at 1.25 µM ([2]; Well no.=9172) was 83.9%.

Molecule CCCCCCCCC(=O)NCc1cc(OC)c(O)cc1I [6-Iodonordihydrocapsaicin] has a remaining activity at 3.75 µM ([1]; Well no.=5963) of 99% and a remaining activity at 1.25 µM ([2]; Well no.=5963) of 95.9%.

N=C(N)N/N=C/c1c(Cl)cccc1Cl [Guanabenz acetate] was tested, and the remaining activity at 3.75 µM ([1]; Well no.=604) was 96.2% and the remaining activity at 1.25 µM ([2]; Well no.=604) was 96.6%.

With CC(C)C[C@H](NC(=O)[C@H](O)[C@H](N)Cc1ccccc1)C(=O)O [Epibestatin hydrochloride] the remaining activity at 3.75 µM ([1]; Well no.=692) was 93.6% and the remaining activity at 1.25 µM ([2]; Well no.=692) was 96.8%.

Work on CCCCN1CCC(n2c(=O)[nH]c3ccccc32)CC1 [NS 521 oxalate] yielded a remaining activity at 3.75 µM ([1]; Well no.=1003) of 105% and a remaining activity at 1.25 µM ([2]; Well no.=1003) of 99.3%.

C[C@]12CC[C@@H]3c4ccc(OC(=O)c5ccccc5)cc4CC[C@H]3[C@@H]1CC[C@@H]2O [Estradiol Benzoate] was tested, and the remaining activity at 3.75 µM ([1]; Well no.=5134) was 104% and the remaining activity at 1.25 µM ([2]; Well no.=5134) was 105%.

Molecule CCCCCC[C@@H]([C@@H](C)O)n1cnc2c(N)ncnc21 [erythro-9-(2-Hydroxy-3-nonyl)adenine hydrochloride] has a remaining activity at 3.75 µM ([1]; Well no.=513) of 105% and a remaining activity at 1.25 µM ([2]; Well no.=513) of 105%.

In the case of CCNC(=O)CC[C@H](N)C(=O)O [L-Theanine], the remaining activity at 3.75 µM ([1]; Well no.=3522) is reported as 99% and the remaining activity at 1.25 µM ([2]; Well no.=3522) is reported as 97.3%.

Work on C/C=C1/C[C@@H](C)[C@@](C)(O)C(=O)OCC2=CCN3CC[C@@H](OC1=O)[C@@H]23 [Senecionine] yielded a remaining activity at 3.75 µM ([1]; Well no.=3464) of 99.1% and a remaining activity at 1.25 µM ([2]; Well no.=3464) of 98.3%.

With CN1CC[C@@]23CCCC[C@@H]2[C@@H]1Cc1ccc(O)cc13 [Dextrorphan D-tartrate] the remaining activity at 3.75 µM ([1]; Well no.=592) was 103% and the remaining activity at 1.25 µM ([2]; Well no.=592) was 101%.

In the case of C=CC[C@]1(O)CC[C@H]2[C@@H]3CCC4=CC(=O)CCC4=C3C=C[C@@]21C [Altrenogest], the remaining activity at 3.75 µM ([1]; Well no.=5020) is reported as 93.9% and the remaining activity at 1.25 µM ([2]; Well no.=5020) is reported as 94.3%.

With Cc1cnc(C(=O)NCCc2ccc(S(=O)(=O)NC(=O)NC3CCCCC3)cc2)cn1 [Glipizide] the remaining activity at 3.75 µM ([1]; Well no.=700) was 94.3%, the remaining activity at 3.75 µM ([1]; Well no.=1605) was 93% and the remaining activity at 1.25 µM ([2]; Well no.=700) was 91.5%. It also gave a remaining activity at 1.25 µM ([2]; Well no.=1605) of 96.2%.

Work on Cc1c2oc3c(C)ccc(C(=O)N[C@@H]4C(=O)N[C@H](C(C)C)C(=O)N5CCC[C@H]5C(=O)N(C)CC(=O)N(C)[C@@H](C(C)C)C(=O)O[C@@H]4C)c3nc-2c(C(=O)N[C@@H]2C(=O)N[C@H](C(C)C)C(=O)N3CCC[C@H]3C(=O)N(C)CC(=O)N(C)[C@@H](C(C)C)C(=O)O[C@@H]2C)c(N)c1=O [Actinomycin D] (I: T[dV]P[Sar][NMeV] / II: T[dV]P[Sar][NMeV]; ester I:1-I:C, II:1-II:C; linker I:N-II:N via Actinocin(9to1)) yielded a remaining activity at 3.75 µM ([1]; Well no.=3075) of 103% and a remaining activity at 1.25 µM ([2]; Well no.=3075) of 103%.

Nc1ccc(C(=O)O)c(O)c1 [Sodium 4-Aminosalicylate] was tested, and the remaining activity at 3.75 µM ([1]; Well no.=4974) was 95.6% and the remaining activity at 1.25 µM ([2]; Well no.=4974) was 101%.

With NC[C@@H]1O[C@H](O[C@H]2[C@@H](O)[C@H](O[C@@H]3[C@@H](O)[C@H](N)C[C@H](N)[C@H]3O[C@H]3O[C@H](CO)[C@@H](O)[C@H](O)[C@H]3N)O[C@@H]2CO)[C@H](N)[C@@H](O)[C@@H]1O [Paromomycin sulfate] the remaining activity at 3.75 µM ([1]; Well no.=1211) was 100% and the remaining activity at 1.25 µM ([2]; Well no.=1211) was 99.9%.

Work on O=C(CCc1ccc(O)cc1)c1c(O)cc(O)cc1O[C@@H]1O[C@H](CO)[C@@H](O)[C@H](O)[C@H]1O [Phlorizine] yielded a remaining activity at 3.75 µM ([1]; Well no.=3452) of 97.9% and a remaining activity at 1.25 µM ([2]; Well no.=3452) of 94.2%.

In the case of CCOC(=O)N1c2ccc(C(F)(F)F)cc2[C@@H](N(Cc2cc(C(F)(F)F)cc(C(F)(F)F)c2)C(=O)OC)C[C@H]1CC [Torcetrapib (CP-529414)], the remaining activity at 3.75 µM ([1]; Well no.=4749) is reported as 98.1% and the remaining activity at 1.25 µM ([2]; Well no.=4749) is reported as 95.8%.

For Cc1oc(-c2ccccc2)nc1CCC(=O)c1ccc(CC2SC(=O)NC2=O)cc1 (stereo not shown) [Darglitazone sodium salt], the remaining activity at 3.75 µM ([1]; Well no.=5504) was 98% and the remaining activity at 1.25 µM ([2]; Well no.=5504) was 90.6%.

Work on O=C(Nc1ccc(Cl)cc1)C1CCCN(C(=O)c2cccc(-c3ccco3)c2)C1 (stereo not shown) [CCG-203971] yielded a remaining activity at 3.75 µM ([1]; Well no.=6005) of 101% and a remaining activity at 1.25 µM ([2]; Well no.=6005) of 103%.

CNCCc1ccccn1 [Betahistine 2HCl] showed a remaining activity at 3.75 µM ([1]; Well no.=5026) of 98.9% and a remaining activity at 1.25 µM ([2]; Well no.=5026) of 97.2%.

N=C1S/C(=C\c2ccc(-c3ccc4c(c3)C(=O)NC4=O)o2)C(=O)N1c1ccc(Br)cc1 [Bioymifi] gave a remaining activity at 3.75 µM ([1]; Well no.=6390) of 98% and a remaining activity at 1.25 µM ([2]; Well no.=6390) of 96.5%.

With C[C@@H]1COC(Nc2ccc3ncnc(Nc4ccc(OCc5nccs5)c(Cl)c4)c3c2)=N1 [ARRY334543] the remaining activity at 3.75 µM ([1]; Well no.=5073) was 106% and the remaining activity at 1.25 µM ([2]; Well no.=5073) was 102%.

Nc1ccn([C@H]2C[C@H](O)[C@@H](CO)O2)c(=O)n1 [2'-Deoxycytidine (hydrochloride)] gave a remaining activity at 3.75 µM ([1]; Well no.=7806) of 109% and a remaining activity at 1.25 µM ([2]; Well no.=7806) of 105%.

For COc1cc([C@@H]2CC(=O)c3c(O)cc(O)cc3O2)ccc1O [Homoeriodictyol], the remaining activity at 3.75 µM ([1]; Well no.=3683) was 98.2% and the remaining activity at 1.25 µM ([2]; Well no.=3683) was 98.7%.

Molecule COc1cc(N)c(Cl)cc1C(=O)NC1CCN(Cc2ccccc2)CC1 [Clebopride (malate)] has a remaining activity at 3.75 µM ([1]; Well no.=7335) of 102% and a remaining activity at 1.25 µM ([2]; Well no.=7335) of 105%.

With C[C@@H](NCCc1ccc(O)cc1)[C@@H](O)c1ccc(O)cc1 (racemic) [Ritodrine hydrochloride] the remaining activity at 3.75 µM ([1]; Well no.=1156) was 103% and the remaining activity at 1.25 µM ([2]; Well no.=1156) was 97.7%.
